From patent EP4786487A1, “PEPTIDE” (Peptidream Inc, priority 2023, dated 2025)
Like-named read-outs stand apart in the source and are kept apart here. Starred links: 1 amine or outer side, 2 acyl side, 3 side chain; linkers in the order of their positions; H or OH if unused. Positions of bridges follow the written chain, without caps; N, C: chain ends. Non-standard residues stand in square brackets, D forms with d. Residues, ends and D or L forms follow the SMILES beside them. Groups on a side chain read outwards from the residue. *: point of attachment. Phe(4-(4-pyridyl)) = N[C@@H](Cc1ccc(-c2ccncc2)cc1)C(=O)O; Phe(3-OCH2COOH) = N[C@@H](Cc1cccc(OCC(=O)O)c1)C(=O)O; Phe(4-COOH) = N[C@@H](Cc1ccc(C(=O)O)cc1)C(=O)O; Trp(6-aza) = N[C@@H](Cc1c[nH]c2cnccc12)C(=O)O; Trp(7-aza) = N[C@@H](Cc1c[nH]c2ncccc12)C(=O)O; Piperazinyl(4-CH2COOH) = O=C(O)CN1CCN(*)CC1; Piperidinyl(4-CH2COOH) = O=C(O)CC1CCN(*)CC1; Gly(decyl) = CCCCCCCCCC[C@H](N)C(=O)O; Gly(N(CH2)3COOH) = O=C(O)CCCNCC(=O)O; X1 = CCCCCCC[C@H](N[*:1])C(=O)[*:2]; NMeCha = CN[C@@H](CC1CCCCC1)C(=O)O; NMeF = CN[C@@H](Cc1ccccc1)C(=O)O; NMeE = CN[C@@H](CCC(=O)O)C(=O)O; Cha = N[C@@H](CC1CCCCC1)C(=O)O; Carboxymethyl = O=C(O)C*; NMeA = CN[C@@H](C)C(=O)O; CO = O=C([*:1])[*:2]; Sar = CNCC(=O)O

Assays:
Format in all cases: cell-based
Myostatin [1] = biological target: T1, Myostatin (Homo sapiens, UniProt O14793); assay: Reporter gene assay for myostatin signaling in HepG2 cell line, Evaluation Procedure (1), myostatin inhibition; details: read-out: IC50 (Luciferase) Myostatin HepG2
T1 construct: active myostatin (also called mature myostatin) is a homodimer consisting of two C-terminal growth factor domains; purchased R&D systems 788-G8/CF
T1 sequence (O14793 267-375): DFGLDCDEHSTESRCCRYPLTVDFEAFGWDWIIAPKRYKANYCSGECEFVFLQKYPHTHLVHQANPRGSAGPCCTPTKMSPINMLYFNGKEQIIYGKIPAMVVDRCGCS
Method in brief: (§1)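 IC50 derived from One-Glo luciferase luminescence after 20–24 h at 37 °C. Peptides titrated 4-fold at 0.006–100 nmol/L against myostatin or 0.12–2000 nmol/L against GDF-11 in HepG2 cells carrying a transfected CAGA12-luciferase reporter, kept in 0.1% BSA EMEM.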

Myostatin [2] = assay: as above; details: GDF-11 IC50 versus Myostatin IC50
Method in brief: as §1

GDF-11 = biological target: T2, GDF-11 (Homo sapiens, UniProt O95390); assay: Reporter gene assay for myostatin signaling in HepG2 cell line, Evaluation Procedure (1), GDF-11 inhibition; details: read-out: IC50 (Luciferase) GDF-11 HepG2
T2 construct: purchased R&D systems 1958-GD-G8/CF
T2 sequence (O95390 299-407): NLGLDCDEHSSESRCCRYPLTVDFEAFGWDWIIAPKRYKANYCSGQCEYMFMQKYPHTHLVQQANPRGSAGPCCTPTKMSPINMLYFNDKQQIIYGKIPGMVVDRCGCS
Method in brief: as §1

In the case of CCCCCCC[C@@H]1NC(=O)[C@H](Cc2ccccc2)N(C)C(=O)[C@H](CCCNC(=N)N)NC(=O)[C@H](Cc2ccc(OCC(=O)O)cc2)NC(=O)[C@H](Cc2cccc(OCC(=O)O)c2)NC(=O)[C@H](C)N(C)C(=O)[C@H]([C@@H](C)CC)NC(=O)[C@H](Cc2ccccc2)N(C)C(=O)[C@H](Cc2ccc(O)cc2)NC(=O)[C@H](Cc2c[nH]c3ncccc23)NC(=O)[C@H](C)NC(=O)CN(CCCC(=O)O)C(=O)CSC[C@H](C(=O)O)NC(=O)[C@H](Cc2ccccc2)N(C)C(=O)[C@H](C)N(C)C1=O [Myostatin_99_v153] ({CH2CO}-[Gly(N(CH2)3COOH)]A[Trp(7-aza)]Y[NMeF]I[NMeA][Phe(3-OCH2COOH)]Y(Carboxymethyl)R[NMeF][X1][NMeA][NMeF][dC]-OH; thioether N-15), the IC50 (Myostatin [1]; Method A: Myostatin 10 ng/mL) is reported as 1.2 nM, the Selectivity (Myostatin [2]; Method A) is reported as 222 and the IC50 (GDF-11; Method A: GDF-11 10 ng/mL) is reported as 267 nM.
For CC[C@H](C)[C@@H]1NC(=O)[C@H](Cc2ccccc2)N(C)C(=O)[C@H](Cc2ccc(O)cc2)NC(=O)[C@H](Cc2ccc(-c3ccncc3)cc2)NC(=O)[C@H](C)NC(=O)CN(CCCC(=O)O)C(=O)CSC[C@H](C(=O)O)NC(=O)[C@H](Cc2ccccc2)N(C)C(=O)[C@H](C)N(C)C(=O)[C@H](CC(C)C)NC(=O)[C@H](Cc2ccccc2)N(C)C(=O)[C@H](CCCNC(=N)N)NC(=O)[C@H](Cc2ccc(OCC(=O)O)cc2)NC(=O)[C@H](Cc2cccc(OCC(=O)O)c2)NC(=O)[C@H](C)N(C)C1=O [Myostatin_99_v83] ({CH2CO}-[Gly(N(CH2)3COOH)]A[Phe(4-(4-pyridyl))]Y[NMeF]I[NMeA][Phe(3-OCH2COOH)]Y(Carboxymethyl)R[NMeF]L[NMeA][NMeF][dC]-OH; thioether N-15), the IC50 (Myostatin [1]; Method A: Myostatin 10 ng/mL) was 20.9 nM, the Selectivity (Myostatin [2]; Method A) was 144 and the IC50 (GDF-11; Method A: GDF-11 10 ng/mL) was 3010 nM.
CCCCCCC[C@@H]1NC(=O)[C@H](Cc2ccccc2)N(C)C(=O)[C@H](CCCNC(=N)N)NC(=O)[C@H](Cc2ccc(C(=O)O)cc2)NC(=O)[C@H](Cc2cccc(OCC(=O)O)c2)NC(=O)CN(C)C(=O)[C@H]([C@@H](C)CC)NC(=O)[C@H](Cc2ccccc2)N(C)C(=O)[C@H](Cc2ccc(O)cc2)NC(=O)[C@H](Cc2c[nH]c3ccccc23)NC(=O)[C@H](CO)NC(=O)[C@H](C)NC(=O)CSC[C@H](C(=O)O)NC(=O)[C@H](Cc2ccccc2)N(C)C(=O)[C@H](C)N(C)C1=O [Myostatin_99_v159] ({CH2CO}-ASWY[NMeF]I[Sar][Phe(3-OCH2COOH)][Phe(4-COOH)]R[NMeF][X1][NMeA][NMeF][dC]-OH; thioether N-15) gave an IC50 (Myostatin [1]; Method A: Myostatin 10 ng/mL) of 3.9 nM, a Selectivity (Myostatin [2]; Method A) of 104 and an IC50 (GDF-11; Method A: GDF-11 10 ng/mL) of 404 nM.
With CCCCCCC[C@@H]1NC(=O)[C@H](CC2CCCCC2)NC(=O)[C@H](CCCNC(=N)N)NC(=O)[C@H](Cc2ccc(C(=O)O)cc2)NC(=O)[C@H](CCCCNC(=O)N2CCN(CC(=O)O)CC2)NC(=O)CN(C)C(=O)[C@H]([C@@H](C)CC)NC(=O)[C@H](CC2CCCCC2)N(C)C(=O)[C@H](Cc2ccc(O)cc2)NC(=O)[C@H](Cc2c[nH]c3ccccc23)NC(=O)[C@@H](CCC(=O)O)NC(=O)[C@H](C)NC(=O)CSC[C@H](C(=O)N2CCN(CC(=O)O)CC2)NC(=O)[C@H](Cc2ccccc2)N(C)C(=O)[C@H](C)N(C)C1=O [Myostatin_99_v249] ({CH2CO}-A[dE]WY[NMeCha]I[Sar]K([CO-Piperazinyl(4-CH2COOH)])[Phe(4-COOH)]R[Cha][X1][NMeA][NMeF][dC]-{Piperazinyl(4-CH2COOH)}; thioether N-15) the IC50 (Myostatin [1]; Method A: Myostatin 10 ng/mL) was 0.5 nM, the Selectivity (Myostatin [2]; Method A) was 237 and the IC50 (GDF-11; Method A: GDF-11 10 ng/mL) was 119 nM.
Work on CC[C@H](C)[C@@H]1NC(=O)[C@H](Cc2ccccc2)N(C)C(=O)[C@H](Cc2ccc(O)cc2)NC(=O)[C@H](Cc2ccc(-c3ccncc3)cc2)NC(=O)CNC(=O)CN(CCCC(=O)O)C(=O)CSC[C@H](C(=O)O)NC(=O)[C@H](Cc2ccccc2)N(C)C(=O)[C@H](C)N(C)C(=O)[C@H](CC(C)C)NC(=O)[C@H](Cc2ccccc2)N(C)C(=O)[C@H](CCCNC(=N)N)NC(=O)[C@H](Cc2ccc(OCC(=O)O)cc2)NC(=O)[C@H](Cc2cccc(OCC(=O)O)c2)NC(=O)CN(C)C1=O [Myostatin_99_v92] ({CH2CO}-[Gly(N(CH2)3COOH)]G[Phe(4-(4-pyridyl))]Y[NMeF]I[Sar][Phe(3-OCH2COOH)]Y(Carboxymethyl)R[NMeF]L[NMeA][NMeF][dC]-OH; thioether N-15) yielded an IC50 (Myostatin [1]; Method A: Myostatin 10 ng/mL) of 78.1 nM, a Selectivity (Myostatin [2]; Method A) of 50 and an IC50 (GDF-11; Method A: GDF-11 10 ng/mL) of 3880 nM.
Work on CCCCCCC[C@@H]1NC(=O)[C@H](Cc2ccccc2)N(C)C(=O)[C@H](CCCNC(=N)N)NC(=O)[C@H](Cc2ccc(C(=O)O)cc2)NC(=O)[C@H](Cc2cccc(OCC(=O)O)c2)NC(=O)[C@H]2CCCN2C(=O)[C@H]([C@@H](C)CC)NC(=O)[C@H](CC2CCCCC2)N(C)C(=O)[C@H](Cc2ccc(O)cc2)NC(=O)[C@H](Cc2c[nH]c3ccccc23)NC(=O)[C@@H](CCC(=O)O)NC(=O)[C@H](C)NC(=O)CSC[C@H](C(=O)N2CCN(CC(=O)O)CC2)NC(=O)[C@H](Cc2ccccc2)N(C)C(=O)[C@H](C)N(C)C1=O [Myostatin_99_v253] ({CH2CO}-A[dE]WY[NMeCha]I[dP][Phe(3-OCH2COOH)][Phe(4-COOH)]R[NMeF][X1][NMeA][NMeF][dC]-{Piperazinyl(4-CH2COOH)}; thioether N-15) yielded an IC50 (Myostatin [1]; Method A: Myostatin 10 ng/mL) of 5.7 nM, a Selectivity (Myostatin [2]; Method A) of 428 and an IC50 (GDF-11; Method A: GDF-11 10 ng/mL) of 2440 nM.
With CCCCCCC[C@@H]1NC(=O)[C@H](Cc2ccccc2)N(C)C(=O)[C@H](CCCNC(=N)N)NC(=O)[C@H](Cc2ccc(C(=O)O)cc2)NC(=O)[C@H](Cc2cccc(OCC(=O)O)c2)NC(=O)CN(C)C(=O)[C@H]([C@@H](C)CC)NC(=O)[C@H](Cc2ccccc2)N(C)C(=O)[C@H](Cc2ccc(O)cc2)NC(=O)[C@H](Cc2c[nH]c3ccccc23)NC(=O)[C@H](C)NC(=O)[C@H](C)NC(=O)CSC[C@H](C(=O)N2CCN(CC(=O)O)CC2)NC(=O)[C@H](Cc2ccccc2)N(C)C(=O)[C@H](C)N(C)C1=O [Myostatin_99_v221] ({CH2CO}-AAWY[NMeF]I[Sar][Phe(3-OCH2COOH)][Phe(4-COOH)]R[NMeF][X1][NMeA][NMeF][dC]-{Piperazinyl(4-CH2COOH)}; thioether N-15) the IC50 (Myostatin [1]; Method A: Myostatin 10 ng/mL) was 0.9 nM, the Selectivity (Myostatin [2]; Method A) was 80 and the IC50 (GDF-11; Method A: GDF-11 10 ng/mL) was 72 nM.
For CCCCCCCCCC[C@@H]1NC(=O)[C@H](Cc2ccccc2)N(C)C(=O)[C@H](CCCNC(=N)N)NC(=O)[C@H](Cc2ccc(C(=O)O)cc2)NC(=O)[C@H](Cc2cccc(OCC(=O)O)c2)NC(=O)[C@H]2CCCN2C(=O)[C@H]([C@@H](C)CC)NC(=O)[C@H](Cc2ccccc2)N(C)C(=O)[C@H](Cc2ccc(O)cc2)NC(=O)[C@H](Cc2c[nH]c3cnccc23)NC(=O)[C@H](C)NC(=O)[C@H](C)NC(=O)CSC[C@H](C(=O)N2CCC(CC(=O)O)CC2)NC(=O)[C@H](Cc2ccccc2)N(C)C(=O)[C@H](CCC(=O)O)N(C)C1=O [Myostatin_99_v338] ({CH2CO}-AA[Trp(6-aza)]Y[NMeF]I[dP][Phe(3-OCH2COOH)][Phe(4-COOH)]R[NMeF][Gly(decyl)][NMeE][NMeF][dC]-{Piperidinyl(4-CH2COOH)}; thioether N-15), the IC50 (Myostatin [1]; Method B: Myostatin 1 ng/mL) was 0.38 nM, the Selectivity (Myostatin [2]; Method B) was 299.8 and the IC50 (GDF-11; Method B: GDF-11 1 ng/mL) was 114 nM.
